Data taken from patent publication US10800755B2, “2,6-disubstituted pyridine derivative” (Sumitomo Dainippon Pharma Co., Ltd., priority 2017, dated 2020).
Read-outs that look alike come from different tables or passages of the source.

Assays:
[1] = target: T1, human 5-HT1A receptor (Homo sapiens (Human), UniProt P08908); test: Test 1: agonistic activity for human 5-HT1A receptor (aequorin/Gα16 luminescence in CHO-K1 cell); type: cell-based; conditions: for Emax: CHO-K1, 100% = 10 μmol/L endogenous ligand; for EC50: CHO-K1 cell, aequorin luminescence
Description: (§1) Test 1: Evaluation of Agonistic Activity for Human 5-HT1A Receptor and Human D4 Receptor
(§2) Aequorin, Gα16 proteins, and each receptor were transiently expressed in CHO-K1 cell (Chinese hamster ovary), and seeded to 384-well plate. The plate was incubated in a CO2 incubator at 37° C. for 24 hours. Each example compound dissolved in DMSO was added thereto, and the change of luminescence amount was measured with Hamamatsu FDSS/μCELL System (Hamamatsu Photonics).

[2] = target: T2, human D4 receptor (Homo sapiens (Human), UniProt P21917); test: Test 1: agonistic activity for human D4 receptor (aequorin/Gα16 luminescence in CHO-K1 cell); type: cell-based; conditions: for Emax: CHO-K1, 100% = 10 μmol/L endogenous ligand; for EC50: CHO-K1 cell, aequorin luminescence
Description: as §1, §2

[3] = target: T1, human 5-HT1A receptor; test: Test 2: binding activity to human 5-HT1A receptor ([3H] 8-OH-DPAT, CHO cell membrane); conditions: [3H] 8-OH-DPAT; read-out: 5-HT1A binding affinity (Ki value)
Description: (§3) Test 2: Evaluation of Binding Activity to Human 5-HT1A Receptor, Human D4 Receptor, and Human D2 Receptor
(§4) CHO cell membrane fraction in which human 5-HT1A receptor, human D4 receptor, and human D2 receptor were expressed was purchased from PerkinElmer Co., Ltd. In the evaluation test of binding, the test compound dissolved in DMSO, each receptor membrane preparation diluted with buffer solution, and [3H] […] The nonspecific binding to each receptor was evaluated by a competition binding experiment in the presence of 10 μmol/L 8-OH-DPAT, 10 μmol/L dopamine, or 10 μmol/L spiperone, respectively.

[4] = target: T2, human D4 receptor; test: Test 2: binding activity to human D4 receptor ([3H] dopamine, CHO cell membrane)
Description: as §3, §4

[5] = target: human D2 receptor (Homo sapiens (Human), UniProt P14416); test: Test 2: binding activity to human D2 receptor ([3H] spiperone, CHO cell membrane); conditions: [3H] spiperone; read-out: D2 binding affinity (Ki value)
Description: as §3, §4

[6] = Test 3-2: metabolic stability test of human liver microsome (0.5 or 1.0 mg/mL); type: in vitro ADME; conditions: test compound 0.1 μmol/L, 37° C., 30 minutes
Description: Test 3-2: Metabolic Stability Test of Human Liver Microsome
(§5) In order to evaluate the metabolic stability of human liver microsomes more precisely, the stability of the present compounds for human liver microsome metabolism was evaluated with a suitable concentration of human liver microsome, as mentioned below. The used human liver microsome was obtained from Xenontech. Human liver microsome, NADPH, and each test compound were mixed in 25 mmol/L phosphate buffer solution (pH 7.4) to adjust each concentration as shown below, and the mixture was incubated at 37° C. for 30 minutes. • human liver microsome: 0.5 or 1.0 mg/mL • NAPDH: 3.2 mmol/L • test compound: 0.1 μmol/L
(§6) The residual ratio of the test compound in each sample after the incubation for 30 minutes was measured with a LC-MS, and the metabolic stability of human liver microsome was calculated about each test compound with the following formula. Metabolic stability of human liver microsome (mL/min/mg protein)=−LN (residual ratio)/“reaction time”/“concentration of human liver microsome”

[7] = Test 4-1: predictive test of human half-life (monkey distribution volume, serum unbound fraction, Test 3-1 stability); conditions: in vivo, predicted using Test 3-1 metabolic stability
Description: Test 4-1: Predictive Test of Human Half-Life
(§7) 0.01 mol/L of the present compound in aqueous hydrochloric acid solution was parenterally administered to cynomolgus monkey. 5 minutes, 15 minutes, 30 minutes, 1 hour, 2 hours, 4 hours, 6 hours, and 24 hours after the administration, the blood was collected. The plasma was obtained from the collected blood, the drug concentration in the plasma was measured with a LC-MS, and the monkey distribution volume was calculated from the transition of the concentrations. The unbound fraction rate of the present compound in serum of human and monkey was measured by equilibrium dialysis method.
Using the monkey distribution volume, the unbound fraction rate in serum of human and monkey, and the result of the metabolic stability of human liver microsome which was obtained in Test 3-1, the half-life in human was calculated according to the formula below. “Human distribution volume”=“monkey distribution volume”×“unbound fraction rate in serum of human”/“unbound fraction rate in serum of monkey” “Human hepatic clearance”=(“human hepatic blood flow”×“unbound fraction rate in serum of human”×56.7×“metabolic stability of human liver microsome”)/(“human hepatic blood flow”+“unbound fraction rate in serum of human”×56.7×“metabolic stability of human liver microsome”) “Half-life in human”=0.693×“human distribution volume”/“human hepatic clearance”

[8] = Test 4-2: predictive test of human half-life (monkey distribution volume, serum unbound fraction, Test 3-2 stability); conditions: in vivo, predicted using Test 3-2 metabolic stability
Description: Test 4-2: Predictive Test of Human Half-Life
as §7
Using the monkey distribution volume, the unbound fraction rate in serum of human and monkey, and the result of the metabolic stability of human liver microsome which was obtained in Test 3-2, the half-life in human was calculated according to the formula below. “Human distribution volume”=“monkey distribution volume”×“unbound fraction rate in serum of human”/“unbound fraction rate in serum of monkey” “Human hepatic clearance”=(“human hepatic blood flow”×“unbound fraction rate in serum of human”×56.7×“metabolic stability of human liver microsome”)/(“human hepatic blood flow”+“unbound fraction rate in serum of human”×56.7×“metabolic stability of human liver microsome”) “Half-life in human”=0.693×“human distribution volume”/“human hepatic clearance”

[9] = system: Wistar male rat; test: Test 9: microdialysis test (release amount of intracerebral monoamine, orbitofrontal cortex); type: in vivo; conditions: combination administration with sertraline or single administration
Description: Test 9: Microdialysis Test
The effect of the present compound for the release amount of intracerebral monoamine was evaluated in a manner mentioned below.
8-Week-old Wistar male rat was fixed on a brain stereotaxic apparatus under anesthesia. The scalp was incised, the subcutaneous tissue was removed, the position of the bregma was measured, and the installation position of a guide cannula was calculated (the position of the orbitofrontal cortex which defined according to the brain stereotaxic coordinates of Paxinos & Watson (2.0 mm right, 4.2 mm anterior from bregma)). The skull was drilled with a dental drill at the installation position of the guide cannula, and an anchor screw was set about 1 cm posterior to the hole. The guide cannula was set and fixed with a dental cement, and then the scalp was sutured. The animal was released from the brain stereotaxic apparatus, and was moved back to the breeding cage. In the event of the test, the rat was put in an acrylic observable cage, and a dialysis probe was inserted along the guide cannula to connect to a free-moving tube. With an infusion pump, Ringer solution was perfused at 2 μL/min, and the dialysis solution was recovered at 20-minute intervals. […] The recovered dialysis solutions were analyzed with a HPLC-ECD system to determine the contents of norepinephrine (NE), dopamine (DA), and serotonin (5-HT).

[10] = Test 3-1: metabolic stability test of human liver microsome (0.1 mg/mL); type: in vitro ADME; conditions: test compound 0.1 μmol/L, 37° C., 30 minutes
Description: Test 3-1: Metabolic Stability Test of Human Liver Microsome
as §5, with “The” for “In order to evaluate the metabolic stability of human liver microsomes more precisely, the”, “evaluated” for “evaluated with a suitable concentration of human liver microsome,”, “0.1” for “0.5 or 1.0”
as §6

[11] = target: hERG channel (Homo sapiens (Human), UniProt Q12809); test: Test 5-1: activity for inhibiting hERG channel (whole-cell patch clamp, hERG-CHO cell, Qpatch); type: cell-based; conditions: read-out: hERG inhibition IC50
Description: Test 5-1: Evaluation of Activity for Inhibiting hERG Channel
The activity of the present compound for inhibiting hERG channel was measured by whole-cell patch clamp method with auto patch clamp system, using CHO cell wherein hERG channel involved in human rapidly activating delayed rectifier potassium current (IKr) was forcibly expressed.
hERG-CHO cell purchased from ChanTest was incubated at 37° C. in a CO2 incubator, and the cell was exfoliated from the flask with trypsin to prepare a cell suspension, shortly before the hERG current measurement.
Extracellular fluid: 2 mmol/L CaCl2, 1 mmol/L MgCl2, 10 mmol/L HEPES, 4 mmol/L KCl, 145 mmol/L NaCl, 10 mmol/L glucose
Intracellular fluid: 5.4 mmol/L CaCl2, 1.8 mmol/L MgCl2, 10 mmol/L HEPES, 31 mmol/L KOH, 10 mmol/L EGTA, 120 mmol/L KCl, 4 mmol/L Na2-ATP
Test compound solution: The test compound was dissolved in DMSO by adjusting the concentration to 2 mmol/L or 20 mmol/L to prepare each test compound solution. […] (Measurement of Current Value and Data Analysis)
The cell suspension, the extracellular fluid, the intracellular fluid, and the measurement plate were set in an auto patch clamp system, and the hERG current was measured by whole-cell patch clamp method. […] Each pulse interval was 15 seconds. The data analysis was carried out with Qpatch Assay Software (Biolin Scientific). The test was carried out applying increscently 4 concentrations of each test compound, and the average of the peak tail currents that were obtained by the last 3 stimulations in each applied concentration was determined to be the evaluated data. By using the current inhibition rate for the pre-applied current at each concentration of each test compound, IC50 value was calculated by Hill equation with the software.

[12] = system: SD male rat; test: Test 6: contextual fear conditioning test; type: in vivo; conditions: 10 mg/kg administration
Description: Test 6: Contextual Fear Conditioning Test
The antianxiety of the present compounds was evaluated in a manner mentioned below.
The evaluation of an 8-week-old SD male rat with a fear conditioning test system (O'HARA & CO., LTD.) was carried out in 2-day test schedule. On the 1st day of the test, by giving 0.5 mA of electric shock to the rat as unconditioned stimulus 5 times for 6 minutes, the rat was made to learn the relationship the context (the illuminance in the cage: 200 lx) which was given as conditioned stimulus, and phobic stimulus. On the 2nd day, the present compound was subcutaneously administered with saline solution to the rat, or orally administered with methylcellulose suspension to the rat. 0.5 or 1 hour after the administration, the rat was made to softly enter the cage under the condition in which the unconditioned stimulus was not given in the context. The time of cataleptic freezing reaction that the rat took for 5-minute freely-moving period and its ratio were measured. The ratios of cataleptic freezing reaction between the solvent-administration group and the present compound-administration group were compared to be statistically processed.

[13] = [3H] dopamine, read-out: D4 binding affinity (Ki value)

human D2 receptor, sequence (P14416 whole entry): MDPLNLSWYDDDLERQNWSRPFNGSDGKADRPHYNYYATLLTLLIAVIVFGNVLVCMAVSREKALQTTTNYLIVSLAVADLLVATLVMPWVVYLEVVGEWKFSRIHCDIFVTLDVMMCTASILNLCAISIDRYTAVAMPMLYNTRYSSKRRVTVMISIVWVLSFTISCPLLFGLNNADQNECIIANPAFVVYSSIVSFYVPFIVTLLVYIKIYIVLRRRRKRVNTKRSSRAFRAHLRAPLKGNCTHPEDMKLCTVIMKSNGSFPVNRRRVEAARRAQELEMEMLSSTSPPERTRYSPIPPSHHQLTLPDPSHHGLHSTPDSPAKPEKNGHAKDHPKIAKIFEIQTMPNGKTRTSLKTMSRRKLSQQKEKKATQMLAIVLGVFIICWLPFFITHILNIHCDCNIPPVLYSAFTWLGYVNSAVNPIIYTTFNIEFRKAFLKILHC
T1 sequence (P08908 whole entry): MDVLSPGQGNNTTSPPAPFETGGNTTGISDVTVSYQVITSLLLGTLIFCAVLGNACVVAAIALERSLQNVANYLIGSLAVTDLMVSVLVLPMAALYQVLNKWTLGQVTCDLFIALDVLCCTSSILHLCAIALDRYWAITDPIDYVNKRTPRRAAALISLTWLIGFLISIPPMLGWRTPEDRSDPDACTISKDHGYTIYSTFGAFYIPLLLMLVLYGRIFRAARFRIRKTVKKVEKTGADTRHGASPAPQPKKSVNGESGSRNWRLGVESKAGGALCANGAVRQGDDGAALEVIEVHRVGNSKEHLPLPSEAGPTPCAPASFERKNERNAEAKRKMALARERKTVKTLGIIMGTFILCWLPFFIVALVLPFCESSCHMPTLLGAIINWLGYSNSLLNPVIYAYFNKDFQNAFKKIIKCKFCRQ
T2 sequence (P21917 whole entry): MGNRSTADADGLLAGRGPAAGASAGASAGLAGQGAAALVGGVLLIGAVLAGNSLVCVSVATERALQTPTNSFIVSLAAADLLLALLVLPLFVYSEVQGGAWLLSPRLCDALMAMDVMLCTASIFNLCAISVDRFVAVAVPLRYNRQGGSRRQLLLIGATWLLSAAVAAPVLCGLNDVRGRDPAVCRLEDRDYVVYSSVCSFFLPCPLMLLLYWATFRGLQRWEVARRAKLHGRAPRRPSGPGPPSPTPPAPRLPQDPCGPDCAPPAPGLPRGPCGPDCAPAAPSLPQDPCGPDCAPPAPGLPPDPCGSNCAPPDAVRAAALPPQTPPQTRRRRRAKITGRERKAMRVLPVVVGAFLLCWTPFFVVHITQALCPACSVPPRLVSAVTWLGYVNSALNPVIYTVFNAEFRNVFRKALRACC
hERG channel, sequence (Q12809 whole entry): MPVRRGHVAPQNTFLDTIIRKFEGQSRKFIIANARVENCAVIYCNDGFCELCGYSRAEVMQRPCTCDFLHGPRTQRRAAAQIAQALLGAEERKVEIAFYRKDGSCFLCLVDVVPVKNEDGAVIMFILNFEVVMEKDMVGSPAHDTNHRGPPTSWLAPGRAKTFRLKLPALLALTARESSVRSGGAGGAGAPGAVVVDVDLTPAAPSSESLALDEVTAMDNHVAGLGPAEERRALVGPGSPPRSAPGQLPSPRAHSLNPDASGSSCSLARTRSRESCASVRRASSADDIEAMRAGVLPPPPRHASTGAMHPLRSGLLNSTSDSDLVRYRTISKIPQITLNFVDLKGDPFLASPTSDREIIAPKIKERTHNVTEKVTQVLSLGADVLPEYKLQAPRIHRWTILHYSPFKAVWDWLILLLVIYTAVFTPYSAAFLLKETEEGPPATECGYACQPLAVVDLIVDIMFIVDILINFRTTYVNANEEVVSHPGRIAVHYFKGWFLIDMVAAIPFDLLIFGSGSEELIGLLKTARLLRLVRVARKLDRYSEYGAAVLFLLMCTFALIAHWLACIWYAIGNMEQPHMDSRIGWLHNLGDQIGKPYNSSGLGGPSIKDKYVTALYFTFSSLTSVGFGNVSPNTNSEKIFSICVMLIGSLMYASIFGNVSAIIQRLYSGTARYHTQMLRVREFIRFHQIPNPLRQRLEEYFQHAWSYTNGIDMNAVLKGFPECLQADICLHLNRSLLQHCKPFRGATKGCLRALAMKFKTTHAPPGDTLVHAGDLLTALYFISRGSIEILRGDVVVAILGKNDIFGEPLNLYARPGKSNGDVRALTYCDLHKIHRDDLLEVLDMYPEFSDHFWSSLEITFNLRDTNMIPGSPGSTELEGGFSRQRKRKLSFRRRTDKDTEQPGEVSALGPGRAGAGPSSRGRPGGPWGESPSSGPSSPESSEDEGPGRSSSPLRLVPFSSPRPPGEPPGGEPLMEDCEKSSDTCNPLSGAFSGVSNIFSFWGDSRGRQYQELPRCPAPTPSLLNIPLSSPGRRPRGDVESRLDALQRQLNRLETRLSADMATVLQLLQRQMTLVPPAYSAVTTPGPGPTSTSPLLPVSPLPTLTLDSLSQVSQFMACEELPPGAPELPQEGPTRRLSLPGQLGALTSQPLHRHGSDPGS

Compound	Emax [1] [%]	EC50 [1] [nM]	Emax [2] [%]	EC50 [2] [nM]	Ki [3] [nM]	Ki [4] [nM]	Ki [5] [nM]	Metabolic stability of human liver microsome [6] [mL/min/mg protein]	half-life [7] [h]	half-life [8] [h]	serotonin content [9]	Ki [4, 13] [nM]	Metabolic stability of human liver microsome [10] [mL/min/mg protein]	IC50 [11] [nM]	decrease of the cataleptic freezing reaction for the solvent-administration group [12] [%]
O=C(NCCN1CCC(c2cccc(C(F)(F)F)n2)CC1)C1CCOCC1 [Example 11, N-(2-{4-[6-(Trifluoromethyl)pyridin-2-yl]piperidin-1-yl}ethyl)-tetrahydro-2H-pyran-4-carboxamide]	92	82	56	30.8	2.1	44	> 10000	0.0075	13	17	did not decrease the serotonin content	–	–	–	–
Cc1cccc(C2CCN(CCNC(=O)C3CCOCC3)CC2)n1 [Example 8, N-{2-[4-(6-Methylpyridin-2-yl)piperidin-1-yl]ethyl}-tetrahydro-2H-pyran-4-carboxamide]	71	< 10	65	37.1	1.4	–	> 10000	0.023	9.2	59	–	111	0.017	44300	41.0
CC(C)(C)C(=O)NCCN1CCC(c2cccc(C(F)(F)F)n2)CC1 [Example 9, 2,2-dimethyl-N-(2-{4-[6-(trifluoromethyl)pyridin-2-yl]piperidin-1-yl}ethyl)propanamide]	84	< 10	53	< 10	1.1	–	2440	0.016	–	10	–	8	0.025	5900	–
